Laboratory results as given in publication PMC2800054 (Journal of medicinal chemistry, 2008).
In brackets after ≈: the same amount, converted by molar mass.

Columns and labels:
[1] = cited from earlier work
protein synthesis = conditions: read-out: IC50 (inhibition of protein synthesis); in vitro protein translation assay
[2] = cited from earlier work; remark: listed apart in the source
MbtA [3] = molecular target: T1, MbtA (Mycobacterium tuberculosis, UniProt P71716); assay type: biochemical; conditions: for fold increase in potency / binding affinity (KI^app) relative to 6 / fold loss of potency (KI^app) relative to 6: relative to parent compound 6
T1 sequence (P71716 whole entry): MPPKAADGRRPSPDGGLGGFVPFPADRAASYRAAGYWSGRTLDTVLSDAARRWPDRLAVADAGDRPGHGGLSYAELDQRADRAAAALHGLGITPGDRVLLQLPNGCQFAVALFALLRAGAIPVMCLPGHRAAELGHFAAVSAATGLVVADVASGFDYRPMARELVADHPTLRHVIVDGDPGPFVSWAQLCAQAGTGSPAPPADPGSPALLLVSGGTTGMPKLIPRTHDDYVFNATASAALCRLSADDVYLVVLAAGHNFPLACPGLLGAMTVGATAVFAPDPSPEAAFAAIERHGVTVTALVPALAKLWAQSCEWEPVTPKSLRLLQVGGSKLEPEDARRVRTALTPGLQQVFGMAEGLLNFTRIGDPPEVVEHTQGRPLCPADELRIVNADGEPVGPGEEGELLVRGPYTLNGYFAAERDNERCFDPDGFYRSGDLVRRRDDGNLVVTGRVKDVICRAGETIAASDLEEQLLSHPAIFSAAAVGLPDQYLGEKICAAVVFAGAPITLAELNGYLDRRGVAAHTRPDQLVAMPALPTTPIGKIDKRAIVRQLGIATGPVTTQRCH

M. tuberculosis H37Rv [4] = experiment: M. tuberculosis H37Rv MIC assay; assay type: cell-based, Mycobacterium tuberculosis; conditions: ratio of selectivity factors
MbtA [5] = molecular target: T1, MbtA; assay type: binding; conditions: ITC
[6] = molecular target: cysteine adenylation domain in the multifunctional NRPS module known as HMWP2; conditions: read-out: Ki^app; cited from earlier work
MbtA [7] = molecular target: T1, MbtA; conditions: cited from earlier work; for ΔG^0 (free energy of binding): acyladenylate fragments
M. tuberculosis H37Rv [8] = conditions: under the assay conditions; positive control; cited from earlier work
[9] = saturating salicylic acid, 298 K

Compound: 5′-O-[N-(salicyl)sulfamoyl]adenosine [Compound 6]
- stability in human plasma [1]: stable
- IC50 (protein synthesis): > 100000 nM
- stability in human liver microsomes [2]: stable

Compound: CCN(CC)CC.Nc1nc(Nc2ccccc2)nc2c1ncn2[C@@H]1O[C@H](COS(=O)(=O)NC(=O)c2ccccc2O)[C@@H](O)[C@H]1O [Compound 24, 2-Anilino-5′-O-[N-(2-hydroxybenzoyl)sulfamoyl]adenosine Triethylammonium Salt]
- fold increase in potency / binding affinity (KI^app) relative to 6 (MbtA [3]): 7 fold

Compound: Nc1nc(-c2ccccc2-c2ccccc2)nc2c1ncn2[C@@H]1O[C@H](COS(=O)(=O)[N-]C(=O)c2ccccc2O)[C@@H](O)[C@H]1O.[Na+] [Compound 27, 2-(Biphen-2-yl)-5′-O-[N-(2-hydroxybenzoyl)sulfamoyl]adenosine Sodium Salt]
- fold loss in potency compared to 26 (MbtA [3]; 27 compared to 26): 174 fold

Compound: O=C([N-]S(=O)(=O)OC[C@H]1O[C@@H](n2cnc3c(NC4CCC4)ncnc32)[C@H](O)[C@@H]1O)c1ccccc1O.[Na+] [Compound 17, N^6-Cyclobutyl-5′-O-[N-(2-hydroxybenzoyl)sulfamoyl]adenosine Sodium Salt]
- fold loss of potency (KI^app) relative to 6 (MbtA [3]): 124 fold

Compound: CCN(CC)CC.O=C(NS(=O)(=O)OC[C@H]1O[C@@H](n2cnc3c(NC4CC4)ncnc32)[C@H](O)[C@@H]1O)c1ccccc1O [Compound 16, N^6-Cyclopropyl-5′-O-[N-(2-hydroxybenzoyl)sulfamoyl]adenosine Triethylammonium Salt]
- fold increase in potency / binding affinity (KI^app) relative to 6 (MbtA [3]): 3.5 fold
- enhancement in selectivity S relative to Sal-AMS 6 (M. tuberculosis H37Rv [4]): 16 fold

Compound: CCN(CC)CC.Nc1nc(-c2ccccc2)nc2c1ncn2[C@@H]1O[C@H](COS(=O)(=O)NC(=O)c2ccccc2O)[C@@H](O)[C@H]1O [Compound 26, 5′-O-[N-(2-Hydroxybenzoyl)sulfamoyl]-2-phenyladenosine Triethylammonium Salt]
- ΔG^0 (MbtA [5]): -17.5 kcal/mol
- ΔH (MbtA [5]; [9]): -15.9 ± 0.6 kcal/mol
- −TΔS (MbtA [5]; [9]): -1.6 ± 1.4 kcal/mol

Compound: Nc1ncnc2c1ncn2[C@@H]1O[C@H](COS(=O)(=O)NC(=O)[C@@H](N)CS)[C@@H](O)[C@H]1O [cysteyl-AMS]
- Ki [6]: 240 nM

Compound: CCN(CC)CC.O=C(NS(=O)(=O)OC[C@H]1O[C@@H](n2cnc3c(=O)[nH]cnc32)[C@H](O)[C@@H]1O)c1ccccc1O [Compound 9, 5′-O-[N-(2-Hydroxybenzoyl)sulfamoyl]inosine Triethylammonium Salt]
- fold loss of potency (KI^app) relative to 6 (MbtA [3]): 121 fold

Compound: O=C(O)c1ccccc1O [salicylic acid]
- ΔG^0 (free energy of binding) (MbtA [7]): -7.9 kcal/mol
- KA(Sal) (MbtA [7]; association constant with MbtA): 664000 M⁻¹
- ΔH(Sal) (MbtA [7]; enthalpy with MbtA): -6.77 kcal/mol
- Kd (MbtA [7]; weak ligand for ITC displacement): 1630 ± 520 nM

Compound: CC(C)CNc1ncnc2c1ncn2[C@@H]1O[C@H](COS(=O)(=O)[N-]C(=O)c2ccccc2O)[C@@H](O)[C@H]1O.[Na+] [Compound 15, 5′-O-[N-(2-Hydroxybenzoyl)sulfamoyl]-N^6-isobutyladenosine Sodium Salt]
- fold loss of potency (KI^app) relative to 6 (MbtA [3]): 1140 fold

Compound: CCN(CC)CC.CN(C)c1ncnc2c1ncn2[C@@H]1O[C@H](COS(=O)(=O)NC(=O)c2ccccc2O)[C@@H](O)[C@H]1O [Compound 10, 5′-O-[N-(2-Hydroxybenzoyl)sulfamoyl]-N^6,N^6′-dimethyladenosine Triethylammonium Salt]
- fold activity difference between N-6-dimethyl 10 and N-6-methyl 11 (MbtA [3]; 10 versus 11): ~ 238 fold
- fold loss of potency (KI^app) relative to 6 (MbtA [3]): 58 fold

Compound: Nc1ncnc2c1ncn2[C@@H]1O[C@H](COP(=O)(O)O)[C@@H](O)[C@H]1O [AMP, adenosine monophosphate]
- ΔG^0 (free energy of binding) (MbtA [7]): -5.0 kcal/mol

Compound: NNC(=O)c1ccncc1 [isoniazid]
- MIC99 (M. tuberculosis H37Rv [8]): 0.18 µM (≈ 0.0247 µg/mL)

Compound: CCN(CC)CC.Nc1nc(I)nc2c1ncn2[C@@H]1O[C@H](COS(=O)(=O)NC(=O)c2ccccc2O)[C@@H](O)[C@H]1O [Compound 23, 5′-O-[N-(2-Hydroxybenzoyl)sulfamoyl]-2-iodoadenosine Triethylammonium Salt]
- fold increase in potency / binding affinity (KI^app) relative to 6 (MbtA [3]): 2 fold

Compound: CCN(CC)CC.Nc1nc(C#Cc2ccccc2)nc2c1ncn2[C@@H]1O[C@H](COS(=O)(=O)NC(=O)c2ccccc2O)[C@@H](O)[C@H]1O [Compound 25, 5′-O-[N-(2-Hydroxybenzoyl)sulfamoyl]-2-(phenylethynyl)adenosine Triethylammonium Salt]
- fold increase in potency / binding affinity (KI^app) relative to 6 (MbtA [3]): 17 fold

Compound: CCN(CC)CC.Nc1ncnc2c1ccn2[C@@H]1O[C@H](COS(=O)(=O)NC(=O)c2ccccc2O)[C@@H](O)[C@H]1O [Compound 7, 7-Deaza-5′-O-[N-(2-hydroxybenzoyl)sulfamoyl]adenosine Triethylammonium Salt]
- fold loss of potency (KI^app) relative to 6 (MbtA [3]): 4 fold
